Data: ChEMBL document CHEMBL3046587, “Baseline sensitivity of Monilinia laxa from Greece to fenhexamid and analysis of fenhexamid-resistant mutants” (Crop Prot, 2013)
In brackets after ≈: the same amount, converted by molar mass.

Assays:
[1] = system: Monilinia laxa; assay: Fungitoxicity against moderately fenhexamid resistant Monilinia laxa MF-6 assessed as reduction in mycelial growth measured at 25 degC after 4 days; format: functional, organism-based; conditions: MF-6, 96 h
[2] = system: Monilinia laxa; assay: Fungitoxicity against highly fenhexamid resistant Monilinia laxa MF-5 assessed as reduction in mycelial growth measured at 25 degC after 4 days; format: functional, organism-based; conditions: MF-5, 96 h
[3] = system: Monilinia laxa; assay: Fungitoxicity against moderately fenhexamid resistant Monilinia laxa MF-7 assessed as reduction in mycelial growth measured at 25 degC after 4 days; format: functional, organism-based; conditions: MF-7, 96 h
[4] = system: Monilinia laxa; assay: Fungitoxicity against moderately fenhexamid resistant Monilinia laxa MF-4 assessed as reduction in mycelial growth measured at 25 degC after 4 days; format: functional, organism-based; conditions: MF-4, 96 h
[5] = system: Monilinia laxa; assay: Fungitoxicity against Monilinia laxa MF-19 assessed as diameter of mycelial colony measured at 25 degC after 4 days; format: functional
[6] = system: Monilinia laxa; assay: Fungitoxicity against Monilinia laxa MF-7 assessed as diameter of mycelial colony measured at 25 degC after 4 days; format: functional
[7] = system: Monilinia laxa; assay: Fungitoxicity against Monilinia laxa MF-4 assessed as diameter of mycelial colony measured at 25 degC after 4 days; format: functional
[8] = system: Monilinia laxa; assay: Fungitoxicity against Monilinia laxa MF-5 assessed as diameter of mycelial colony measured at 25 degC after 4 days; format: functional
[9] = system: Monilinia laxa; assay: Resistance factor, ratio of EC50 for Monilinia laxa MLK12 to EC50 for wild type Monilinia laxa K2; format: functional
[10] = system: Monilinia laxa; assay: Fungitoxicity against Monilinia laxa MLK6 assessed as diameter of mycelial colony measured at 25 degC after 4 days; format: functional
[11] = system: Monilinia laxa; assay: Resistance factor, ratio of EC50 for Monilinia laxa MF-8 to EC50 for wild type Monilinia laxa K2; format: functional
[12] = system: Monilinia laxa; assay: Fungitoxicity against Monilinia laxa MLBO7 assessed as diameter of mycelial colony measured at 25 degC after 4 days; format: functional
[13] = system: Monilinia laxa; assay: Fungitoxicity against Monilinia laxa MLK12 assessed as diameter of mycelial colony measured at 25 degC after 4 days; format: functional
[14] = system: Monilinia laxa; assay: Resistance factor, ratio of EC50 for Monilinia laxa MLX2 to EC50 for wild type Monilinia laxa K2; format: functional
[15] = system: Monilinia laxa; assay: Fungitoxicity against Monilinia laxa MLC2 assessed as diameter of mycelial colony measured at 25 degC after 4 days; format: functional
[16] = system: Monilinia laxa; assay: Fungitoxicity against Monilinia laxa MLP2 assessed as diameter of mycelial colony measured at 25 degC after 4 days; format: functional
[17] = system: Monilinia laxa; assay: Resistance factor, ratio of EC50 for Monilinia laxa MF-15 to EC50 for wild type Monilinia laxa K2; format: functional
[18] = system: Monilinia laxa; assay: Fungitoxicity against Monilinia laxa K2 assessed as diameter of mycelial colony measured at 25 degC after 4 days; format: functional
[19] = system: Monilinia laxa; assay: Fungitoxicity against moderately fenhexamid resistant Monilinia laxa MF-1 assessed as reduction in mycelial growth measured at 25 degC after 4 days; format: functional, organism-based; conditions: MF-1, 96 h
[20] = system: Monilinia laxa; assay: Fungitoxicity against Monilinia laxa MLX2 assessed as diameter of mycelial colony measured at 25 degC after 4 days; format: functional
[21] = system: Monilinia laxa; assay: Fungitoxicity against wild type Monilinia laxa K2 assessed as reduction in mycelial growth measured at 25 degC after 4 days; format: functional, organism-based; conditions: K2, 96 h
[22] = system: Monilinia laxa; assay: Fungitoxicity against Monilinia laxa MF-22 assessed as diameter of mycelial colony measured at 25 degC after 4 days; format: functional
[23] = system: Monilinia laxa; assay: Resistance factor, ratio of EC50 for Monilinia laxa MF-3 to EC50 for wild type Monilinia laxa K2; format: functional
[24] = system: Monilinia laxa; assay: Resistance factor, ratio of EC50 for Monilinia laxa MF-22 to EC50 for wild type Monilinia laxa K2; format: functional
[25] = system: Monilinia laxa; assay: Fungitoxicity against Monilinia laxa MF-8 assessed as diameter of mycelial colony measured at 25 degC after 4 days; format: functional
[26] = system: Monilinia laxa; assay: Resistance factor, ratio of EC50 for Monilinia laxa MLC2 to EC50 for wild type Monilinia laxa K2; format: functional
[27] = system: Monilinia laxa; assay: Resistance factor, ratio of EC50 for Monilinia laxa MF-2 to EC50 for wild type Monilinia laxa K2; format: functional
[28] = system: Monilinia laxa; assay: Fungitoxicity against Monilinia laxa MF-15 assessed as diameter of mycelial colony measured at 25 degC after 4 days; format: functional
[29] = system: Monilinia laxa; assay: Fungitoxicity against Monilinia laxa MF-2 assessed as diameter of mycelial colony measured at 25 degC after 4 days; format: functional
[30] = system: Monilinia laxa; assay: Resistance factor, ratio of EC50 for Monilinia laxa MF-7 to EC50 for wild type Monilinia laxa K2; format: functional
[31] = system: Monilinia laxa; assay: Fungitoxicity against highly fenhexamid resistant Monilinia laxa MF-3 assessed as reduction in mycelial growth measured at 25 degC after 4 days; format: functional, organism-based; conditions: MF-3, 96 h
[32] = system: Monilinia laxa; assay: Fungitoxicity against highly fenhexamid resistant Monilinia laxa MF-2 assessed as reduction in mycelial growth measured at 25 degC after 4 days; format: functional, organism-based; conditions: MF-2, 96 h
[33] = system: Monilinia laxa; assay: Fungitoxicity against Monilinia laxa MF-3 assessed as diameter of mycelial colony measured at 25 degC after 4 days; format: functional
[34] = system: Monilinia laxa; assay: Resistance factor, ratio of EC50 for Monilinia laxa MF-20 to EC50 for wild type Monilinia laxa K2; format: functional
[35] = system: Monilinia laxa; assay: Resistance factor, ratio of EC50 for Monilinia laxa MF-6 to EC50 for wild type Monilinia laxa K2; format: functional
[36] = system: Monilinia laxa; assay: Resistance factor, ratio of EC50 for Monilinia laxa MF-5 to EC50 for wild type Monilinia laxa K2; format: functional
[37] = system: Monilinia laxa; assay: Fungitoxicity against moderately fenhexamid resistant Monilinia laxa MF-8 assessed as reduction in mycelial growth measured at 25 degC after 4 days; format: functional, organism-based; conditions: MF-8, 96 h
[38] = system: Monilinia laxa; assay: Fungitoxicity against Monilinia laxa MF-1 assessed as diameter of mycelial colony measured at 25 degC after 4 days; format: functional
[39] = system: Monilinia laxa; assay: Fungitoxicity against moderately fenhexamid resistant Monilinia laxa MF-22 assessed as reduction in mycelial growth measured at 25 degC after 4 days; format: functional, organism-based; conditions: MF-22, 96 h
[40] = system: Monilinia laxa; assay: Resistance factor, ratio of EC50 for Monilinia laxa MLBO7 to EC50 for wild type Monilinia laxa K2; format: functional
[41] = system: Monilinia laxa; assay: Resistance factor, ratio of EC50 for Monilinia laxa MLP2 to EC50 for wild type Monilinia laxa K2; format: functional
[42] = system: Monilinia laxa; assay: Fungitoxicity against Monilinia laxa MF-6 assessed as diameter of mycelial colony measured at 25 degC after 4 days; format: functional
[43] = system: Monilinia laxa; assay: Resistance factor, ratio of EC50 for Monilinia laxa MF-19 to EC50 for wild type Monilinia laxa K2; format: functional
[44] = system: Monilinia laxa; assay: Resistance factor, ratio of EC50 for Monilinia laxa MLK6 to EC50 for wild type Monilinia laxa K2; format: functional
[45] = system: Monilinia laxa; assay: Resistance factor, ratio of EC50 for Monilinia laxa MF-1 to EC50 for wild type Monilinia laxa K2; format: functional
[46] = system: Monilinia laxa; assay: Resistance factor, ratio of EC50 for Monilinia laxa MF-4 to EC50 for wild type Monilinia laxa K2; format: functional
[47] = system: Monilinia laxa; assay: Fungitoxicity against Monilinia laxa MF-20 assessed as diameter of mycelial colony measured at 25 degC after 4 days; format: functional

`COC(=O)Nc1nc2ccccc2[nH]1` [CARBENDAZIM] was tested, and the EC50 [1] was 0.2 µg/mL (≈ 1.05 µM), the EC50 [2] was 0.5 µg/mL (≈ 2.62 µM) and the EC50 [3] was 0.3 µg/mL (≈ 1.57 µM). The EC50 [4] was 0.2 µg/mL (≈ 1.05 µM).
For `CC1(C(=O)Nc2ccc(O)c(Cl)c2Cl)CCCCC1` [FENHEXAMID], the Activity [5] was 55 mm, the Activity [6] was 55 mm and the Activity [7] was 57 mm. The Activity [8] was 57 mm, the “Ratio EC50” value [9] was 2.2 and the Activity [10] was 52 mm. The “Ratio EC50” value [11] was 58, the EC50 [1] was 5.8 µg/mL (≈ 19.2 µM) and the Activity [12] was 60 mm. For the same compound, the Activity [13] was 55 mm, the “Ratio EC50” value [14] was 1.1 and the Activity [15] was 49 mm. For the same compound, the Activity [16] was 60 mm, the “Ratio EC50” value [17] was 31 and the Activity [18] was 57 mm. The EC50 [19] was 2.2 µg/mL (≈ 7.28 µM), the EC50 [2] was 6.9 µg/mL (≈ 22.8 µM) and the Activity [20] was 59 mm. The EC50 [21] was 0.1 µg/mL (≈ 0.331 µM), the Activity [22] was 56 mm and the “Ratio EC50” value [23] was 75. For the same compound, the “Ratio EC50” value [24] was 37, the Activity [25] was 58 mm and the “Ratio EC50” value [26] was 3.7. For the same compound, the “Ratio EC50” value [27] was 111, the Activity [28] was 56 mm and the Activity [29] was 54 mm. For the same compound, the “Ratio EC50” value [30] was 22, the EC50 [31] was 7.4 µg/mL (≈ 24.5 µM) and the EC50 [32] was 11.1 µg/mL (≈ 36.7 µM). The Activity [33] was 60 mm, the “Ratio EC50” value [34] was 34 and the “Ratio EC50” value [35] was 58. The “Ratio EC50” value [36] was 70, the EC50 [37] was 5.8 µg/mL (≈ 19.2 µM) and the Activity [38] was 50 mm. For the same compound, the EC50 [39] was 3.7 µg/mL (≈ 12.2 µM), the “Ratio EC50” value [40] was 0.4 and the EC50 [3] was 2.3 µg/mL (≈ 7.61 µM). For the same compound, the “Ratio EC50” value [41] was 0.3, the EC50 [4] was 4 µg/mL (≈ 13.2 µM) and the Activity [42] was 56 mm. For the same compound, the “Ratio EC50” value [43] was 43, the “Ratio EC50” value [44] was 1.2 and the “Ratio EC50” value [45] was 23. For the same compound, the “Ratio EC50” value [46] was 40 and the Activity [47] was 55 mm.
Compound `CC(Cc1ccc(C(C)(C)C)cc1)CN1C[C@@H](C)O[C@@H](C)C1` (stereo partly specified) [FENPROPIMORPH] has an EC50 [1] of 1 µg/mL (≈ 3.3 µM), an EC50 [19] of 1 µg/mL (≈ 3.3 µM) and an EC50 [2] of 0.15 µg/mL (≈ 0.494 µM). For the same compound, the EC50 [21] was 0.14 µg/mL (≈ 0.461 µM), the EC50 [31] was 0.11 µg/mL (≈ 0.362 µM) and the EC50 [32] was 0.18 µg/mL (≈ 0.593 µM). The EC50 [37] was 0.3 µg/mL (≈ 0.989 µM), the EC50 [39] was 0.5 µg/mL (≈ 1.65 µM) and the EC50 [3] was 0.1 µg/mL (≈ 0.33 µM). For the same compound, the EC50 [4] was 0.12 µg/mL (≈ 0.395 µM).
For `N#Cc1c[nH]cc1-c1cccc2c1OC(F)(F)O2` [FLUDIOXONIL], the EC50 [1] was 0.02 µg/mL (≈ 0.0806 µM), the EC50 [19] was 0.02 µg/mL (≈ 0.0806 µM) and the EC50 [2] was 0.01 µg/mL (≈ 0.0403 µM). For the same compound, the EC50 [21] was 0.01 µg/mL (≈ 0.0403 µM), the EC50 [31] was 0.01 µg/mL (≈ 0.0403 µM) and the EC50 [32] was 0.03 µg/mL (≈ 0.121 µM). It also gave an EC50 [37] of 0.05 µg/mL (≈ 0.201 µM), an EC50 [39] of 0.02 µg/mL (≈ 0.0806 µM) and an EC50 [3] of 0.01 µg/mL (≈ 0.0403 µM). The EC50 [4] was 0.03 µg/mL (≈ 0.121 µM).
For `C[Si](Cn1cncn1)(c1ccc(F)cc1)c1ccc(F)cc1` [FLUSILAZOLE], the EC50 [1] was 0.3 µg/mL (≈ 0.951 µM), the EC50 [19] was 0.2 µg/mL (≈ 0.634 µM) and the EC50 [2] was 0.1 µg/mL (≈ 0.317 µM). For the same compound, the EC50 [21] was 0.1 µg/mL (≈ 0.317 µM), the EC50 [31] was 0.1 µg/mL (≈ 0.317 µM) and the EC50 [32] was 0.1 µg/mL (≈ 0.317 µM). For the same compound, the EC50 [37] was 0.2 µg/mL (≈ 0.634 µM), the EC50 [39] was 0.4 µg/mL (≈ 1.27 µM) and the EC50 [3] was 0.2 µg/mL (≈ 0.634 µM). For the same compound, the EC50 [4] was 0.1 µg/mL (≈ 0.317 µM).
